Assay results published in PubChem BioAssay (NCI).
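All cell lines were grown in 96-well plates and treated with compound for 48 hours. GI50 marks 50% less growth. Definition used: TGI = concentration required for complete inhibition of growth.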

Legend:
Assay in all cases: NCI anticancer screen, dose series, 48 h
786-0 renal = tested on: 786-0 renal
A498 renal = tested on: A498 renal
A549 NSCLC = tested on: A549 NSCLC
ACHN renal = tested on: ACHN renal
BT-549 breast = tested on: BT-549 breast
CAKI-1 renal = tested on: CAKI-1 renal
CCRF-CEM leukemia = tested on: CCRF-CEM leukemia
COLO 205 colon = tested on: COLO 205 colon
DU-145 prostate = tested on: DU-145 prostate
EKVX NSCLC = tested on: EKVX NSCLC
HCC-2998 colon = tested on: HCC-2998 colon
HCT-116 colon = tested on: HCT-116 colon
HCT-15 colon = tested on: HCT-15 colon
HL-60(TB) leukemia = tested on: HL-60(TB) leukemia
HOP-62 NSCLC = tested on: HOP-62 NSCLC
HOP-92 NSCLC = tested on: HOP-92 NSCLC
HS 578T breast = tested on: HS 578T breast
HT29 colon = tested on: HT29 colon
IGROV1 ovarian = tested on: IGROV1 ovarian
K-562 leukemia = tested on: K-562 leukemia
KM12 colon = tested on: KM12 colon
LOX IMVI melanoma = tested on: LOX IMVI melanoma
M14 melanoma = tested on: M14 melanoma
MALME-3M melanoma = tested on: MALME-3M melanoma
MCF7 breast = tested on: MCF7 breast
MDA-MB-231 breast = tested on: MDA-MB-231 breast
MDA-MB-435 = tested on: MDA-MB-435
MOLT-4 leukemia = tested on: MOLT-4 leukemia
NCI-H226 lung = tested on: NCI-H226 lung
NCI-H23 lung = tested on: NCI-H23 lung
NCI-H460 lung = tested on: NCI-H460 lung
NCI-H522 lung = tested on: NCI-H522 lung
NCI/ADR-RES ovarian = tested on: NCI/ADR-RES ovarian
OVCAR-3 ovarian = tested on: OVCAR-3 ovarian
OVCAR-4 ovarian = tested on: OVCAR-4 ovarian
OVCAR-5 ovarian = tested on: OVCAR-5 ovarian
OVCAR-8 ovarian = tested on: OVCAR-8 ovarian
PC-3 prostate = tested on: PC-3 prostate
RPMI-8226 leukemia = tested on: RPMI-8226 leukemia
RXF 393 renal = tested on: RXF 393 renal
SF-268 CNS = tested on: SF-268 CNS
SF-295 CNS = tested on: SF-295 CNS
SF-539 CNS = tested on: SF-539 CNS
SK-MEL-2 melanoma = tested on: SK-MEL-2 melanoma
SK-MEL-28 melanoma = tested on: SK-MEL-28 melanoma
SK-MEL-5 melanoma = tested on: SK-MEL-5 melanoma
SK-OV-3 ovarian = tested on: SK-OV-3 ovarian
SN12C renal = tested on: SN12C renal
SNB-19 CNS = tested on: SNB-19 CNS
SNB-75 CNS = tested on: SNB-75 CNS
SR leukemia = tested on: SR leukemia
SW-620 colon = tested on: SW-620 colon
TK-10 renal = tested on: TK-10 renal
U251 CNS = tested on: U251 CNS
UACC-257 melanoma = tested on: UACC-257 melanoma
UACC-62 melanoma = tested on: UACC-62 melanoma
UO-31 renal = tested on: UO-31 renal

Which results are given for O=S(=O)(Nc1cccc2ccccc12)c1ccc(-c2cnc(C3CC3)o2)cc1?
GI50 (786-0 renal): 71.2 nM; TGI (786-0 renal): > 82900 nM; GI50 (A498 renal): 33.4 nM; TGI (A498 renal): 500 nM; GI50 (A549 NSCLC): 141 nM; TGI (A549 NSCLC): > 100000 nM; GI50 (ACHN renal): 68.4 nM; TGI (ACHN renal): > 100000 nM; GI50 (BT-549 breast): 4200 nM; TGI (BT-549 breast): 34800 nM; GI50 (CAKI-1 renal): 46.3 nM; TGI (CAKI-1 renal): > 81700 nM; GI50 (CCRF-CEM leukemia): 41.2 nM; TGI (CCRF-CEM leukemia): > 100000 nM; GI50 (COLO 205 colon): 99 nM; TGI (COLO 205 colon): 1350 nM; GI50 (DU-145 prostate): 144 nM; TGI (DU-145 prostate): > 100000 nM; GI50 (EKVX NSCLC): 276 nM; TGI (EKVX NSCLC): > 91400 nM; GI50 (HCC-2998 colon): 220 nM; TGI (HCC-2998 colon): 23900 nM; GI50 (HCT-116 colon): 47.3 nM; TGI (HCT-116 colon): > 74500 nM; GI50 (HCT-15 colon): 50.5 nM; TGI (HCT-15 colon): > 42000 nM; GI50 (HL-60(TB) leukemia): 30.1 nM; TGI (HL-60(TB) leukemia): 388 nM; GI50 (HOP-62 NSCLC): 99.5 nM; TGI (HOP-62 NSCLC): > 89700 nM; GI50 (HOP-92 NSCLC): < 19.3 nM; TGI (HOP-92 NSCLC): 4790 nM; GI50 (HS 578T breast): 56.3 nM; TGI (HS 578T breast): > 76100 nM; GI50 (HT29 colon): 48.4 nM; TGI (HT29 colon): > 68900 nM; GI50 (IGROV1 ovarian): 62.6 nM; TGI (IGROV1 ovarian): > 100000 nM; GI50 (K-562 leukemia): 41.7 nM; TGI (K-562 leukemia): > 73200 nM; GI50 (KM12 colon): 49.8 nM; TGI (KM12 colon): 14900 nM; GI50 (LOX IMVI melanoma): 48.8 nM; TGI (LOX IMVI melanoma): 26000 nM; GI50 (M14 melanoma): 76.4 nM; TGI (M14 melanoma): > 48500 nM; GI50 (MALME-3M melanoma): 12100 nM; TGI (MALME-3M melanoma): 67300 nM; GI50 (MCF7 breast): 32.9 nM; TGI (MCF7 breast): > 57700 nM; GI50 (MDA-MB-231 breast): 389 nM; TGI (MDA-MB-231 breast): > 48700 nM; GI50 (MDA-MB-435): 24.3 nM; TGI (MDA-MB-435): 85.4 nM; GI50 (MOLT-4 leukemia): 101 nM; TGI (MOLT-4 leukemia): > 49400 nM; GI50 (NCI-H226 lung): 106 nM; TGI (NCI-H226 lung): 30600 nM; GI50 (NCI-H23 lung): 186 nM; TGI (NCI-H23 lung): 31500 nM; GI50 (NCI-H460 lung): 43.5 nM; TGI (NCI-H460 lung): 12600 nM; GI50 (NCI-H522 lung): 61.2 nM; TGI (NCI-H522 lung): 24000 nM; GI50 (NCI/ADR-RES ovarian): 45.5 nM; TGI (NCI/ADR-RES ovarian): 16700 nM; GI50 (OVCAR-3 ovarian): 42.5 nM; TGI (OVCAR-3 ovarian): 15700 nM; GI50 (OVCAR-4 ovarian): 88 nM; TGI (OVCAR-4 ovarian): > 100000 nM; GI50 (OVCAR-5 ovarian): 450 nM; TGI (OVCAR-5 ovarian): > 100000 nM; GI50 (OVCAR-8 ovarian): 347 nM; TGI (OVCAR-8 ovarian): > 100000 nM; GI50 (PC-3 prostate): 47.4 nM; TGI (PC-3 prostate): > 59900 nM; GI50 (RPMI-8226 leukemia): 53.6 nM; TGI (RPMI-8226 leukemia): 20000 nM; GI50 (RXF 393 renal): 23.7 nM; TGI (RXF 393 renal): 141 nM; GI50 (SF-268 CNS): 716 nM; TGI (SF-268 CNS): > 100000 nM; GI50 (SF-295 CNS): 40.1 nM; TGI (SF-295 CNS): 15600 nM; GI50 (SF-539 CNS): 42.3 nM; TGI (SF-539 CNS): 2070 nM; GI50 (SK-MEL-2 melanoma): 2420 nM; TGI (SK-MEL-2 melanoma): 56500 nM; GI50 (SK-MEL-28 melanoma): 3440 nM; TGI (SK-MEL-28 melanoma): > 100000 nM; GI50 (SK-MEL-5 melanoma): 56.8 nM; TGI (SK-MEL-5 melanoma): 3410 nM; GI50 (SK-OV-3 ovarian): 2190 nM; TGI (SK-OV-3 ovarian): > 85800 nM; GI50 (SN12C renal): 508 nM; TGI (SN12C renal): > 64600 nM; GI50 (SNB-19 CNS): 63 nM; TGI (SNB-19 CNS): > 100000 nM; GI50 (SNB-75 CNS): 30.1 nM; TGI (SNB-75 CNS): 82500 nM; GI50 (SR leukemia): 40.2 nM; TGI (SR leukemia): > 34300 nM; GI50 (SW-620 colon): 48.9 nM; TGI (SW-620 colon): > 100000 nM; GI50 (TK-10 renal): 19700 nM; TGI (TK-10 renal): > 100000 nM; GI50 (U251 CNS): 74.5 nM; TGI (U251 CNS): 97100 nM; GI50 (UACC-257 melanoma): 5940 nM; TGI (UACC-257 melanoma): 45700 nM; GI50 (UACC-62 melanoma): 40.2 nM; TGI (UACC-62 melanoma): 23500 nM; GI50 (UO-31 renal): 74.5 nM; TGI (UO-31 renal): > 59200 nM
